Laboratory results published in patent publication US10739353B2, “Suppression of cytokine release and cytokine storm” (SignPath Pharma Inc., priority 2014, dated 2020).
Converted amounts (≈) assume the structure as drawn. “Also recorded” adds a separate entry of the source. Where two headings read alike, the source gives them in different places.

Tests used:
[1] = cited from earlier work; for clinical outcome in patients with TBI: patient trials
[2] = mice, cited from earlier work; for brain cytokine levels after TBI: cytokines named in value
[3] = test system: QT interval; details: cited from earlier work
[4] = rats, cited from earlier work; for brain / tissue cytokine levels after TBI: cytokines named in value
[5] = test system: IL-1β and TNF-α; details: intraperitoneal, 3 hours after injury; cited from earlier work
[6] = test system: H1N1 virus; details: in culture; cited from earlier work
[7] = test system: SOCS proteins; details: cited from earlier work
[8] = test system: coxsackie virus; details: Song et al; cited from earlier work
[9] = test system: Other Key Cytokines; details: cited from earlier work
[10] = test system: cytokine release; details: cited from earlier work
[11] = test system: HIV-1, HIV-2, HSV, HPV, HTLV-1, HBV, HCV, and Japanese encephalitis virus; details: cited from earlier work
[12] = test system: IL-6, TNF-α and MCP-1; details: streptozotocin rats; cited from earlier work
[13] = test system: EBOV(Zaire); assay: microbe, parasite or virus in culture; type: cell-based; details: Zaire ebolavirus, HeLa, 48 h, read-out: EC50 (anti-EBOV activity)
[14] = test system: Interleukins; details: cited from earlier work
[15] = randomized phase II trial, acute stroke, vs control group; cited from earlier work
[16] = Solubility in organic solvents; type: physicochemical
Text: Comparison of PLGA C3-complex-curcumin vs PLGA S-curcumin indicated the following differences. The solubilities of 99.2% S-Curcumin in all four solvents. […] This confers improved manufacturing capability, and attributes to different pharmacokinetics and pharmacodynamics in in vivo settings (Table 3). [table]

[17] = test system: rat cerebellar granule cells; details: toxic doses of glutamate (Bachis et al); cited from earlier work
[18] = rats; cited from earlier work
[19] = phase II trial, 20 patients with severe TBI (Helmy et al)

For `CC(C)c1nc(N(C)S(C)(=O)=O)nc(-c2ccc(F)cc2)c1/C=C/[C@@H](O)C[C@@H](O)CC(=O)O` [rosuvastatin], the “plasma cytokine levels in patients with TBI” value ([1]; 10 days of rosuvastatin, 19 patients vs 17 controls) is listed as “dramatic decrease in plasma levels of TNF-α; also recorded: No effect was seen on IL-1β, IL-6 or IL-10” and the “clinical outcome in patients with TBI” value [1] is listed as “reduction in amnesia time; also recorded: no difference in disability at 3 months; also recorded: improvement in disability scores”.

For `Cc1cc(-c2ccccc2)nnc1N1CCN(c2ncccn2)CC1` [MW151], the “brain damage / neurological outcome after TBI” value [2] is given as “improvement in neurologic functioning” and the “brain cytokine levels after TBI” value [2] is given as “restored abnormal cytokine levels to normal”.

In the case of “tocilizumab: an IL-6 blocker; anti-IL-6 antibody”, the QT interval ([3]; patients with rheumatoid arthritis) is given as “shortening of the duration of the previously prolonged QT interval”.

For `CC(C(=O)O)c1ccc2c(c1)[nH]c1ccc(Cl)cc12` (centres unmarked) [Carprofen], the “brain damage / neurological outcome after TBI” value [2] is given as “improve neurological functioning” and the “brain cytokine levels after TBI” value [2] is given as “markedly reduce IL-1β and IL-6”.

For `CC(=O)[C@H]1CC[C@H]2[C@@H]3CCC4=CC(=O)CC[C@]4(C)[C@H]3CC[C@]12C` [progesterone], the “brain damage / neurological outcome after TBI” value [4] is given as “improved motor skills, decreased cerebral edema and decreased mortality; also recorded: reducing apoptosis of brain tissue; also recorded: better results on the Neurological Severity Score Test”, the “brain / tissue cytokine levels after TBI” value [4] is given as “reduced brain levels of IL-6 at 24, 48 and 72 hours; also recorded: decreased levels of IL-1β, IL-6 and TNF-α in the brain; also recorded: reduced brain levels of TNF-α and NF-κB” and the “favorable outcome on the Glasgow outcome scale” value ([1]; SYNAPSE trial, 1195 patients with severe TBI) is given as 50.4%. For the same molecule, the “IL-1β and TNF-α” value [5] was “reduce IL-1β and TNF-α”.

For `COc1cc(C=CC(=O)CC(=O)C=Cc2ccc(O)c(OC)c2)ccc1O` [Curcumin, 1,7-bis(4-hydroxy-3-methoxyphenyl)-1,6-heptadiene-3,5-dione], the “activity against the H1N1 virus” value [6] is listed as “specific activity”, the “effect on SOCS proteins” value [7] is listed as “stimulate” and the “coxsackie virus-induced myocardial damage” value [8] is listed as “protected against coxsackie virus-induced severe myocardial damage”. For the same molecule, the “expression of IL-1β, IL-6 and TNF-α and NF-κB” value [8] was “reduced expression”, the “Effect on GROα (CXCL1)” value [9] was “↓ GROα” and the “Effect on GROβ (CXCL2)” value [9] was “↓ GROβ”. For the same molecule, the “Effect on IP-10 (CXCL10)” value [9] was “↓ IP-10”, the “Effect on Interferon γ” value [9] was “↓ Interferon γ” and the “Effect on MCP-1 (CCL2)” value [9] was “↓ MCP-1”. The “Effect on MIP-1α (CCL3)” value [9] was “↓ MIP-1α”, the “Effect on SDF-1 (CXCL12)” value [9] was “↓ SDF-1” and the “Effect on TNF-α” value [9] was “↓ TNF-α”. For the same molecule, the “release of IL-1” value ([10]; bone marrow stromal cells, colonic epithelial cells and human articular chondrocytes) was “block the release”, the “release of IL-2, IL-12, Interferon-γ” value [10] was “prevents release” and the “release of IL-8” value ([10]; human esophageal epithelial cells and alveolar epithelial cells) was “block the release”. The “IL-1β, IL-8, TNF-α, MCP-1 and MIP-1α release” value ([10]; monocytes and macrophages (Abe et al)) was “suppresses”, the “release of IL-6, IL-8, TNF-α and MCP-1” value ([10]; monocytes cultured in a high glucose environment (Jain et al)) was “markedly reduced” and the “release of IL-6” value ([10]; rheumatoid synovial fibroblasts) was “block the release”. For the same molecule, the activity against viruses [11] was “activity against numerous viruses”, the “levels of IL-6, TNF-α and MCP-1” value [12] was “markedly reduced” and the EC50 [13] was 6.5 ± 0.5 µg/mL (≈ 17.6 µM). For the same molecule, the “Effect on IL-1” value [14] was “↓ IL-1”, the “Effect on IL-2” value [14] was “↓ IL-2” and the “Effect on IL-4” value [14] was “↓ ↑ IL-4”. The “Effect on IL-5” value [14] was “↓ IL-5”, the “Effect on IL-6” value [14] was “↓ IL-6” and the “Effect on IL-8” value [14] was “↓ IL-8”. For the same molecule, the “Effect on IL-10” value [14] was “↑ IL-10”, the “Effect on IL-11” value [14] was “↓ IL-11” and the “Effect on IL-12” value [14] was “↓ IL-12”. For the same molecule, the “Effect on IL-13” value [14] was “↓ IL-13” and the “Effect on IL-17” value [14] was “↓ IL-17”.

For “TSG-6: TNF-α stimulated gene/protein 6, an anti-inflammatory agent”, the “brain damage / neurological outcome after TBI” value [2] is given as “decreased lesion size and improved neurological recovery”.

For “IL-1RA: IL-1 receptor antagonist; human recombinant IL-1RA is a medication for rheumatoid arthritis”, the “brain damage / neurological outcome after TBI” value [2] is given as “reduced lesion volume”, the “brain damage / neurological outcome after TBI” value [4] is given as “No effect was seen at low doses; also recorded: decreased neuronal loss” and the “brain / tissue cytokine levels after TBI” value [4] is given as “reduced tissue IL-1β levels”. For the same molecule, the “clinical outcome in patients with TBI” value [1] was “unable to conclude that IL-1RA administration resulted in therapeutic benefit”, the “crossing of the blood-brain barrier” value [1, 19] was “does cross the blood-brain barrier” and the safety [1, 19] was “safe”. For the same molecule, the “loss of cognitive function” value [15] was “less loss of cognitive function”.

In the case of `CC(C)[C@]12O[C@H]1[C@@H]1O[C@]13[C@]1(O[C@H]1C[C@H]1C4=C(CC[C@@]13C)C(=O)OC4)[C@@H]2O` [Triptolide], the “brain damage / neurological outcome after TBI” value [4] is given as “reduce neuronal apoptosis” and the “brain / tissue cytokine levels after TBI” value [4] is given as “suppress IL-1β, IL-6 and TNF-α, to increase IL-10 levels”.

For etanercept, the “brain damage / neurological outcome after TBI” value [4] is listed as “reduced neuronal and glial apoptosis and microglial activation; also recorded: increased 5-bromodeoxyuridine and doublecortin markers in the injured brain”, the “brain / tissue cytokine levels after TBI” value [4] is listed as “reducing the increased levels of TNF-α” and the neurological function ([1]; medical records of 617 patients with stroke and 12 with TBI, no control group (Tobinick et al)) is listed as “Marked improvement in neurological function”.

For `CCCCCCCCc1ccc(CCC(N)(CO)CO)cc1` [Fingolimod], the QT interval ([3]; patients with relapsing multiple sclerosis, through inhibition of the hERG current) is listed as “causes QT prolongation”.

For `COc1cc(/C=C/C(=O)CC(=O)/C=C/c2ccc(O)c(OC)c2)ccc1O` [Batch-C100609, diferuloylmethane], the “1 g of solvent solubilize in solvent” value ([16]; Acetone) was 23.6 mL, the “Conc.” value ([16]; Acetone) was 42300 µg/mL and the “Physical appearance of solubility” value ([16]; Acetone) was “Fully”. For the same molecule, the “1 g of solvent solubilize in solvent” value ([16]; Acetonitrile) was 184 mL, the “Conc.” value ([16]; Acetonitrile) was 5440 µg/mL and the “Physical appearance of solubility” value ([16]; Acetonitrile) was “Partial”. The “1 g of solvent solubilize in solvent” value ([16]; Ethanol) was 263 mL, the “Conc.” value ([16]; Ethanol) was 3804 µg/mL and the “Physical appearance of solubility” value ([16]; Ethanol) was “Partial”. For the same molecule, the “1 g of solvent solubilize in solvent” value ([16]; Ethyl acetate) was 96.2 mL, the “Conc.” value ([16]; Ethyl acetate) was 10400 µg/mL and the “Physical appearance of solubility” value ([16]; Ethyl acetate) was “Partial”. For the same molecule, the “solubility compared with C3 complex” value ([16]; normalized to equal concentrations, Ethanol, Ethyl acetate, Acetone, Acetonitrile) was “greater solubility”.

B1: IL-10: the most important anti-inflammatory cytokine (protein, UniProt P22301 19-178, looked up)
Interleukin-10: SPGQGTQSENSCTHFPGNLPNMLRDLRDAFSRVKTFFQMKDQLDNLLLKESLLEDFKGYLGCQALSEMIQFYLEEVMPQAENQDPDIKAHVNSLGENLKTLRLRLRRCHRFLPCENKSKAVEQVKNAFNKLQEKGIYKAMSEFDIFINYIEAYMTMKIRN
In the case of B1, the “caspase-3 and neuronal death” value [17] is listed as “blocks caspase-3 and reduces neuronal death”, the “cytokines and recovery after spinal cord injury” value [18] is listed as “reduced TNF-α production and improved motor function” and the “brain damage / neurological outcome after TBI” value [4] is listed as “enhance neurological recovery; also recorded: Intracerebroventricular administration was not effective”. The “brain / tissue cytokine levels after TBI” value [4] was “reduce synthesis of IL-1”.
